# Assay results taken from patent publication US7786137B2, “Bicyclic derivatives as modulators of ion channels” (Vertex Pharmaceuticals Incorporated, priority 2005, dated 2010).
# Target: NaV1.3 (Homo sapiens, UniProt Q9NY46)
# Test: VIPR optical membrane potential assay, NaV1.3 inhibition
# Format: cell-based
# Set-up: expressed in transfected cells; host or cells: HEK293
# Settings: activity against NaV 1.3 channel
# Description: Antagonist properties of test compounds were assessed as follows. Cells expressing the NaV of interest were placed into microtiter plates. After an incubation period, the cells were stained with fluorescent dyes sensitive to the transmembrane potential. The test compounds were added to the microtiter plate. The cells were stimulated with either a chemical or electrical means to evoke a NaV dependent membrane potential change from unblocked channels, which was detected and measured with trans-membrane potential-sensitive dyes. Antagonists were detected as a decreased membrane potential response to the stimulus.
# The following is an example of how NaV1.3 inhibition activity is measured using the optical membrane potential method#2. Other subtypes are performed in an analogous mode in a cell line expressing the NaV of interest.
# HEK293 cells stably expressing NaV1.3 are plated into 96-well microtiter plates. After an appropriate incubation period, the cells are stained with the voltage sensitive dyes CC2-DMPE/DiSBAC2(3) as follows.
# 2× CC2-DMPE=20 μM CC2-DMPE: 10 mM CC2-DMPE is vortexed with an equivalent volume of 10% pluronic, followed by vortexing in required amount of HBSS containing 10 mM HEPES. Each cell plate will require 5 mL of 2× CC2-DMPE. 50 μL of 2× CC2-DMPE is to wells containing washed cells, resulting in a 10 μM final staining concentration. The cells are stained for 30 minutes in the dark at RT.
# 2× DISBAC2(3) with ABSC1=6 μM DISBAC2(3) and 1 mM ABSC1: The required amount of 10 mM DISBAC2(3) is added to a 50 ml conical tube and mixed with 1 μL 10% pluronic for each mL of solution to be made and vortexed together. Then HBSS/HEPES is added to make up 2× solution. Finally, the ABSC1 is added.
# The 2× DiSBAC2(3) solution can be used to solvate compound plates. Note that compound plates are made at 2× drug concentration. Wash stained plate again, leaving residual volume of 50 μL. Add 50 μL/well of the 2× DiSBAC2(3) w/ABSC1. Stain for 30 minutes in the dark at RT.
# The instrument comprises a microtiter plate handler, an optical system for exciting the coumarin dye while simultaneously recording the coumarin and oxonol emissions, a waveform generator, a current- or voltage-controlled amplifier, and a device for inserting electrodes in well. Under integrated computer control, this instrument passes user-programmed electrical stimulus protocols to cells within the wells of the microfilter plate.
# Insert or use electrodes into each well to be assayed.
# Use the current-controlled amplifier to deliver stimulation wave pulses for 3 s. Two seconds of pre-stimulus recording are performed to obtain the un-stimulated intensities. Five seconds of post-stimulation recording are performed to examine the relaxation to the resting state.
# Data are analyzed and reported as normalized ratios of background-subtracted emission intensities measured in the 460 nm and 580 nm channels. Background intensities are then subtracted from each assay channel. Background intensities are obtained by measuring the emission intensities during the same time periods from identically treated assay wells in which there are no cells. The response as a function of time is then reported as the ratios obtained using the following formula: […]
# The data is further reduced by calculating the initial (Ri) and final (Rf) ratios. These are the average ratio values during part or all of the pre-stimulation period, and during sample points during the stimulation period. The response to the stimulus ? =Rf/Ri is then calculated.
# Control responses are obtained by performing assays in the presence of a compound with the desired properties (positive control), such as tetracaine, and in the absence of pharmacological agents (negative control). Responses to the negative (N) and positive (P) controls are calculated as above. The compound antagonist activity A is defined as:
# [formula] where R is the ratio response of the test compound.
# Sequence of NaV1.3 (Q9NY46 whole entry): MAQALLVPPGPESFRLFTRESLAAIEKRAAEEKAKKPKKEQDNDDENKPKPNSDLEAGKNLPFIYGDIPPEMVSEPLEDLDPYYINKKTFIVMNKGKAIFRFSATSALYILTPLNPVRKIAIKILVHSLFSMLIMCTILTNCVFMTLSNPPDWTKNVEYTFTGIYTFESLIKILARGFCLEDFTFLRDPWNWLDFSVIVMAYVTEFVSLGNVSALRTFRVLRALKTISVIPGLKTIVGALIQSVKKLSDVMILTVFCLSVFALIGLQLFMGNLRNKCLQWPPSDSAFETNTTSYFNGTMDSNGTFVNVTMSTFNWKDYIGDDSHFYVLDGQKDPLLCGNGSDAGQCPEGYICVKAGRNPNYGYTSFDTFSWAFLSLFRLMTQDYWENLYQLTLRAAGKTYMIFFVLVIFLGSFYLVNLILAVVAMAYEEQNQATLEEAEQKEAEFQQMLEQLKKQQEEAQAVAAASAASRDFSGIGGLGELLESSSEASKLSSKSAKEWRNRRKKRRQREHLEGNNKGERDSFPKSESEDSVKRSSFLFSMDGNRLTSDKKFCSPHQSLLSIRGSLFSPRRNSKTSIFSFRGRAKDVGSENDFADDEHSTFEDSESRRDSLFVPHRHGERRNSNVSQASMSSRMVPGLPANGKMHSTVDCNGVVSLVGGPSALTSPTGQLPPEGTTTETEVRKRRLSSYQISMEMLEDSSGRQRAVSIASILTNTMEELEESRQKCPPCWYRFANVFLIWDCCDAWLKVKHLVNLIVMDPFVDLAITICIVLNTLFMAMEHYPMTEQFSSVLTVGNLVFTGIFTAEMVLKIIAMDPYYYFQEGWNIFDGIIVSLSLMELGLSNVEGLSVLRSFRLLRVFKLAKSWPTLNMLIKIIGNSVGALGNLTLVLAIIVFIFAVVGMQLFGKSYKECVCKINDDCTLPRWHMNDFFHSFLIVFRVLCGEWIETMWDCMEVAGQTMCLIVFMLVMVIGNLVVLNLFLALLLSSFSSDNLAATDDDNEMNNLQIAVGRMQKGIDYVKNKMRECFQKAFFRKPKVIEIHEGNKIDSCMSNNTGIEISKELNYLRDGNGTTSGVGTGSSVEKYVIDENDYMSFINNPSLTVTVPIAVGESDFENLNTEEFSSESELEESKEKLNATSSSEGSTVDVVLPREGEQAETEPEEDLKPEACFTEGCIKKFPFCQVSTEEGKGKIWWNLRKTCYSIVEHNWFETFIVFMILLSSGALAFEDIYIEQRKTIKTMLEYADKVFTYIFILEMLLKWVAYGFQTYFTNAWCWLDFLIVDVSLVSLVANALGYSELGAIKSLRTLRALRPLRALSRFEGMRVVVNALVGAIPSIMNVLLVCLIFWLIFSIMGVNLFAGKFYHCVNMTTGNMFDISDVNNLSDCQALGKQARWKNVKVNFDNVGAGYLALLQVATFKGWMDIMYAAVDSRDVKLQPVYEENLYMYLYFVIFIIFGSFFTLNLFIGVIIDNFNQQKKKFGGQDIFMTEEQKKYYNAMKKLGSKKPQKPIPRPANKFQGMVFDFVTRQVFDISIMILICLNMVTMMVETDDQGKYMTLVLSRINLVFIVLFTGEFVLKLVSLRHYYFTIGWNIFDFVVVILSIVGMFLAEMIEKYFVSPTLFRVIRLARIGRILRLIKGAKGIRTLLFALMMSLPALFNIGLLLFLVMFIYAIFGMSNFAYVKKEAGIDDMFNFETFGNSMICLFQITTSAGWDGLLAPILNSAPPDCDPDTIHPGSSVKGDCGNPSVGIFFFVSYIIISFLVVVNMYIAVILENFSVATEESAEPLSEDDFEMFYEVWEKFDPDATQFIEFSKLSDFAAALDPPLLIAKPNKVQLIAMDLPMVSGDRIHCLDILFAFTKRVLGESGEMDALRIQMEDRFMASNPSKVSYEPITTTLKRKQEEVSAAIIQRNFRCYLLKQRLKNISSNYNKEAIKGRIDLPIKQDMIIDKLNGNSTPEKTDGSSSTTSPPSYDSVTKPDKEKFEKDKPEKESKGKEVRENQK
row,SMILES,IC50
1,Cc1ccccc1CNCC(=O)N1CCc2cc(S(=O)(=O)Nc3nccs3)ccc21 [Compound 35],2000 to 5000 nM
2,O=C(COc1ccc(F)c(Cl)c1)N1CCCc2cc(S(=O)(=O)Nc3ncns3)ccc21 [Compound 36],2000 to 5000 nM
3,O=C(CN1CCCc2cc(Cl)ccc21)N1Cc2ccc(S(=O)(=O)Nc3ccncn3)cc2C1 [Compound 37],2000 to 5000 nM
4,O=C(c1ccccc1Cl)N1CCc2cc(S(=O)(=O)Nc3nccs3)ccc21 [Compound 40],> 5000 nM
5,Cc1ccc(CNCC(=O)N2CCc3cc(S(=O)(=O)Nc4nccs4)ccc32)cc1 [Compound 41],2000 to 5000 nM
6,O=C(COc1ccc(F)cc1)N1CCc2cc(S(=O)(=O)Nc3ncns3)ccc21 [Compound 42],< 2000 nM
7,O=C(CN1CCc2ccc(Cl)cc2C1)N1CCc2cc(S(=O)(=O)Nc3nccs3)ccc21 [Compound 44],< 2000 nM
8,O=C(COc1ccnc2c(C(F)(F)F)cccc12)N1CCc2ccc(S(=O)(=O)Nc3nncs3)cc2C1 [Compound 45],> 5000 nM
9,Cc1ccc(C(=O)N2CCc3cc(S(=O)(=O)Nc4nccs4)ccc32)cc1 [Compound 47],< 2000 nM
10,O=C(CNc1ccc(F)c(Cl)c1)N1CCc2cc(S(=O)(=O)Nc3nccs3)ccc21 [Compound 48],2000 to 5000 nM
11,O=C(COc1ccc(Cl)cc1)N1CCc2cc(S(=O)(=O)Nc3nccs3)ccc21 [Compound 49],< 2000 nM
12,O=C(c1cccc(Cl)c1)N1CCc2cc(S(=O)(=O)Nc3nccs3)ccc21 [Compound 50],< 2000 nM
13,O=C(Cc1ccc(OC(F)(F)F)cc1)N1CCc2cc(S(=O)(=O)Nc3nccs3)ccc21 [Compound 51],< 2000 nM
14,O=C(COc1ccc(OC(F)(F)F)cc1)N1CCc2ccc(S(=O)(=O)Nc3nccs3)cc2C1 [Compound 52],> 5000 nM
15,O=C(N1CCc2cc(S(=O)(=O)Nc3nccs3)ccc21)C1(c2ccccc2)CC1 [Compound 54],< 2000 nM
16,COc1cc(C(=O)n2ccc3cc(S(=O)(=O)Nc4nccs4)ccc32)ccc1C [Compound 55],2000 to 5000 nM
17,O=C(Cn1ccc2cccc(Cl)c21)N1Cc2ccc(S(=O)(=O)Nc3ccncn3)cc2C1 [Compound 56],< 2000 nM
18,O=C(ON1Cc2ccc(S(=O)(=O)Nc3nccs3)cc2C1)c1cccc(C(F)(F)F)c1 [Compound 59],< 2000 nM
19,Cc1ccc(OCC(=O)N2CCc3cc(S(=O)(=O)Nc4nccs4)ccc32)c(C)c1 [Compound 60],< 2000 nM

row,SMILES,IC50
1,O=C(CNc1cc(F)ccc1F)N1CCc2cc(S(=O)(=O)Nc3nccs3)ccc21 [Compound 61],< 2000 nM
2,CC(Oc1cccc(Cl)c1)C(=O)N1Cc2ccc(S(=O)(=O)Nc3nccs3)cc2C1 (stereo not shown) [Compound 62],< 2000 nM
3,O=S(=O)(Nc1nccs1)c1ccc2c(c1)CCN2CCNc1nc2ccccc2[nH]1 [Compound 66],> 5000 nM
4,O=C(COc1cccc(Cl)c1Cl)N1CCc2cc(S(=O)(=O)Nc3nccs3)ccc21 [Compound 67],< 2000 nM
5,O=C(Cn1ccc2cccc(Cl)c21)N1CCc2ccc(S(=O)(=O)Nc3nccs3)cc2C1 [Compound 69],> 5000 nM
6,O=C(COc1ccccc1)N1CCCc2cc(S(=O)(=O)Nc3ncns3)ccc21 [Compound 72],> 5000 nM
7,O=C(c1ccc(F)cc1F)N1CCc2ccc(S(=O)(=O)Nc3nccs3)cc2C1 [Compound 73],> 5000 nM
8,O=C(c1cc(F)ccc1F)N1CCc2ccc(S(=O)(=O)Nc3nccs3)cc2C1 [Compound 74],> 5000 nM
9,CC1CCCN(CC(=O)N2CCc3cc(S(=O)(=O)Nc4nccs4)ccc32)C1 (stereo not shown) [Compound 75],> 5000 nM
10,O=C(c1c(F)cc(F)cc1F)N1CCCc2cc(S(=O)(=O)Nc3nccs3)ccc21 [Compound 76],> 5000 nM
11,COc1ccc(OC(=O)N2CCc3cc(S(=O)(=O)Nc4nccs4)ccc32)cc1 [Compound 80],> 5000 nM
12,Cc1ccc(C(=O)N2CCc3cc(S(=O)(=O)Nc4nccs4)ccc32)cc1Cl [Compound 82],< 2000 nM
13,O=C(COc1ccc(OC(F)(F)F)cc1)N1Cc2ccc(S(=O)(=O)Nc3nccs3)cc2C1 [Compound 84],< 2000 nM
14,CC1CN(CC(=O)N2CCc3cc(S(=O)(=O)Nc4nccs4)ccc32)CC(C)O1 (stereo not shown) [Compound 85],> 5000 nM
15,O=C(c1cccc(Cl)c1)n1ccc2cc(S(=O)(=O)Nc3nccs3)ccc21 [Compound 86],< 2000 nM
16,O=C(c1ccc(Cl)c(Cl)c1)N1CCc2cc(S(=O)(=O)Nc3nccs3)ccc21 [Compound 90],< 2000 nM
17,CC(Oc1cccc(Cl)c1)C(=O)N1CCc2cc(S(=O)(=O)Nc3nccs3)ccc21 (stereo not shown) [Compound 91],< 2000 nM
18,C[C@H](C(=O)N1CCc2cc(S(=O)(=O)Nc3ncns3)ccc21)n1ccc2c(F)cccc21 [Compound 93],< 2000 nM
19,C[C@H](C(=O)N1Cc2ccc(S(=O)(=O)Nc3ncns3)cc2C1)n1ccc2c(F)cccc21 [Compound 94],< 2000 nM

# Continued, values first:
row,IC50,SMILES
1,> 5000 nM,CC(Oc1ccccc1)C(=O)N1CCCc2cc(S(=O)(=O)Nc3nccs3)ccc21 (stereo not shown) [Compound 39]
2,< 2000 nM,Cc1cccc(CC(=O)N2CCc3cc(S(=O)(=O)Nc4nccs4)ccc32)c1 [Compound 43]
3,2000 to 5000 nM,O=C(COc1cccc(Cl)c1)N1CCCc2cc(S(=O)(=O)Nc3ncns3)ccc21 [Compound 53]
4,< 2000 nM,CC(C(=O)N1Cc2ccc(S(=O)(=O)Nc3ncns3)cc2C1)N1CCCc2cc(Cl)ccc21 (stereo not shown) [Compound 57]
5,> 5000 nM,C[C@H](C(=O)N1Cc2ccc(S(=O)(=O)Nc3ccc(Cl)nn3)cc2C1)n1ccc2c(F)cccc21 [Compound 58]
6,< 2000 nM,O=C(Cc1ccc(C(F)(F)F)cc1)N1CCc2cc(S(=O)(=O)Nc3nccs3)ccc21 [Compound 63]
7,2000 to 5000 nM,Cc1ccc2c(c1)CCCN2CC(=O)N1CCc2cc(S(=O)(=O)Nc3nccs3)ccc21 [Compound 64]
8,2000 to 5000 nM,O=C(CNc1ccc(C(F)(F)F)cc1)N1CCc2cc(S(=O)(=O)Nc3nccs3)ccc21 [Compound 68]
9,> 5000 nM,O=C(c1cc(F)ccc1F)N1CCCc2cc(S(=O)(=O)Nc3nccs3)ccc21 [Compound 70]
10,< 2000 nM,O=C(COc1ccnc2c(C(F)(F)F)cccc12)N1CCc2cc(S(=O)(=O)Nc3ncns3)ccc21 [Compound 71]
11,< 2000 nM,Cc1ccc(OCC(=O)N2CCc3cc(S(=O)(=O)Nc4nccs4)ccc32)cc1C [Compound 79]
12,2000 to 5000 nM,COc1ccc(F)cc1C(=O)N1CCc2cc(S(=O)(=O)Nc3nccs3)ccc21 [Compound 83]
13,< 2000 nM,C[C@H](C(=O)N1CCc2cc(S(=O)(=O)Nc3nccs3)ccc21)n1ccc2ccccc21 [Compound 87]
14,< 2000 nM,O=C(c1ccc(Cl)c(Cl)c1)N1CCc2cc(S(=O)(=O)Nc3ncns3)ccc21 [Compound 89]
15,> 5000 nM,O=C(c1ccc(F)cc1F)N1CCCc2cc(S(=O)(=O)Nc3nccs3)ccc21 [Compound 95]
16,> 5000 nM,O=C(c1ccccc1F)N1CCCc2cc(S(=O)(=O)Nc3nccs3)ccc21 [Compound 96]
17,< 2000 nM,Cc1ccc(OCC(=O)N2CCc3cc(S(=O)(=O)Nc4ncns4)ccc32)cc1C [Compound 97]
18,2000 to 5000 nM,Cc1nnc(NS(=O)(=O)c2ccc3c(c2)CN(C(=O)[C@@H](C)N2CCCc4cc(Cl)ccc42)C3)s1 [Compound 98]
19,> 5000 nM,Cc1ccccc1CNCCN1CCc2cc(S(=O)(=O)Nc3nccs3)ccc21 [Compound 99]
20,> 5000 nM,COc1ccc(NCCN2CCc3cc(S(=O)(=O)Nc4nccs4)ccc32)cc1 [Compound 100]
